Experimental data reported in patent US20240174690A1, “ANNULATED 2-AMINO-3-CYANO THIOPHENES AND DERIVATIVES FOR THE TREATMENT OF CANCER” (BOEHRINGER INGELHEIM INTERNATIONAL GMBH, priority 2021, published 2024).
Values after ≈ are worked out from the molar mass of the structure shown. Where two headings read alike, the source gives them in different places.

Tests used:
[1] = test system: KRAS G12C-dependent Ba/F3 cells; assay: Ba/F3 proliferation assay, KRAS G12C; format: cell-based; conditions: Mus musculus, BaF3, 72 h, AlamarBlue
Method in brief: (§1)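 Transforming KRAS G12 mutants replaced IL-3 dependence in retrovirally engineered Ba/F3 cells, with puromycin omitted about ten days before testing. Growth under compound was quantified with an AlamarBlue fluorescent viability stain, in duplicate, by curve fitting.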

[2] = test system: SK-CO-1 cells; assay: SK-CO-1 CTG proliferation assay (120 h) (CRC, G12V); format: cell-based; conditions: Homo sapiens; SK-CO-1 cells (CRC, G12V), CTG 120 h
Method in brief: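 SK-CO-1 colorectal cells (KRAS G12V), 500 per well in EMEM + 10% FCS, dosed with compound the day after seeding and grown 120 h at 37 °C. Viability by CellTiter-Glo luminescence as percent of DMSO control; IC50 from four-parameter non-linear regression.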

[3] = test system: KRAS G12V-dependent Ba/F3 cells; assay: Ba/F3 proliferation assay, KRAS G12V; format: cell-based; conditions: Mus musculus, BaF3, 72 h, AlamarBlue;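 note: proliferation IC50 in KRAS G12V-dependent Ba/F3 cells read by AlamarBlue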
Method in brief: as §1

[4] = Solubility measurement (DMSO solution method), McIlvaine buffer pH 4.5 or 6.8; format: physicochemical; conditions: aqueous buffer, kinetic from dmso stock, DMSO stock diluted to 250 μM, 24 h shaking at ambient temperature
Method in brief: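 DMSO stock diluted into McIlvaine buffer, pH 4.5 or 6.8, to 250 µM final, shaken 24 h at ambient temperature. Precipitate removed by filtration; filtrate quantified by LC-UV against a fully dissolved reference in acetonitrile/water 1:1.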

[5] = McIlvaine buffer pH 4.5, read-out: solubility pH 4.5
[6] = McIlvaine buffer pH 6.8, read-out: solubility pH 6.8

| Compound | IC50 [1] | IC50 [2] | IC50 [3] | solubility at 24 h [4, 5] | solubility at 24 h [4, 6] |
| --- | --- | --- | --- | --- | --- |
| CO[C@H]1CCN(C)[C@@H]1[C@H](C)Oc1cc(-n2ccc(C(=O)N[C@@H](C)c3ccccn3)n2)nc(-c2noc3c2CCC[C@@]32CCCc3sc(N)c(C#N)c32)n1 [II-196] | 1 nM | 4 nM | 1 nM | 94 µg/mL (≈ 128 µM) | < 1 µg/mL |
| CO[C@H]1CCN(C)[C@@H]1[C@H](C)Oc1cc(-n2ccc(C(=O)N[C@@H]3CCOC3)n2)nc(-c2noc3c2CCC[C@@]32CCCc3sc(N)c(C#N)c32)n1 [II-197] | 2 nM | 4 nM | 1 nM | > 173 µg/mL | 5 µg/mL (≈ 7.14 µM) |
| CO[C@H]1CCN(C)[C@@H]1[C@H](C)Oc1cc(-n2ccc(C(=O)N(C)C3COC3)n2)nc(-c2noc3c2CCC[C@@]32CCCc3sc(N)c(C#N)c32)n1 [II-199] | 3 nM | 17 nM | 3 nM | > 163 µg/mL | 9 µg/mL (≈ 12.9 µM) |
| COCCNC(=O)c1ccn(-c2cc(O[C@@H](C)[C@@H]3[C@@H](OC)CCN3C)nc(-c3noc4c3CCC[C@@]43CCCc4sc(N)c(C#N)c43)n2)n1 [II-200] | 1 nM | 5 nM | 1 nM | > 163 µg/mL | 4 µg/mL (≈ 5.82 µM) |
| CO[C@H]1CCN(C)[C@@H]1[C@H](C)Oc1cc(-n2ccc(C(N)=O)n2)nc(-c2noc3c2CCC[C@@]32CCCc3sc(N)c(C#N)c32)n1 [II-201] | 3 nM | 9 nM | 1 nM | > 128 µg/mL | 6 µg/mL (≈ 9.53 µM) |
| [2H]C([2H])([2H])N1C[C@H](F)C[C@H]1[C@H](C)Oc1cc(N2CCN(C([2H])([2H])[2H])C3(CC3)C2)nc(-c2noc3c2CCC[C@@]32CCCc3sc(N)c(C#N)c32)n1 [II-207] | 283 nM | 1260 nM | 387 nM | > 134 µg/mL | < 1 µg/mL |

Second part, the compound after the results:

| IC50 [1] | IC50 [2] | IC50 [3] | solubility at 24 h [4, 5] | solubility at 24 h [4, 6] | Compound |
| --- | --- | --- | --- | --- | --- |
| 1 nM | 3 nM | 1 nM | 12 µg/mL (≈ 17.1 µM) | < 1 µg/mL | CO[C@H]1CCN(C)[C@@H]1[C@H](C)Oc1cc(-n2ccc(C(=O)N[C@H]3CCOC3)n2)nc(-c2noc3c2CCC[C@@]32CCCc3sc(N)c(C#N)c32)n1 [II-198] |
| 18 nM | 6 nM | 6 nM | > 166 µg/mL | 58 µg/mL (≈ 83.6 µM) | C[C@H](Oc1cc(-n2cc3ccn([C@H]4CCOC4)c(=O)c3n2)nc(-c2noc3c2CCC[C@@]32CCCc3sc(N)c(C#N)c32)n1)[C@@H]1CCCN1C [II-202] |
| 6 nM | 12 nM | 4 nM | > 159 µg/mL | 65 µg/mL (≈ 93.7 µM) | C[C@H](Oc1cc(-n2cc3ccn([C@@H]4CCOC4)c(=O)c3n2)nc(-c2noc3c2CCC[C@@]32CCCc3sc(N)c(C#N)c32)n1)[C@@H]1CCCN1C [II-203] |
| 11 nM | 14 nM | 7 nM | 4 µg/mL (≈ 5.65 µM) | 5 µg/mL (≈ 7.06 µM) | C[C@H](Oc1cc(-n2cc3ccn(C[C@H]4CCOC4)c(=O)c3n2)nc(-c2noc3c2CCC[C@@]32CCCc3sc(N)c(C#N)c32)n1)[C@@H]1CCCN1C [II-204] |
| 7 nM | 11 nM | 3 nM | 17 µg/mL (≈ 24 µM) | 2 µg/mL (≈ 2.83 µM) | C[C@H](Oc1cc(-n2cc3ccn(C4CCOCC4)c(=O)c3n2)nc(-c2noc3c2CCC[C@@]32CCCc3sc(N)c(C#N)c32)n1)[C@@H]1CCCN1C [II-206] |
| 2 nM | 3 nM | 2 nM | 5 µg/mL (≈ 7.06 µM) | < 1 µg/mL | C[C@H](Oc1cc(-n2ccc(-c3cn(C4CCOCC4)nn3)n2)nc(-c2noc3c2CCC[C@@]32CCCc3sc(N)c(C#N)c32)n1)[C@@H]1CCCN1C [II-210] |
| 6 nM | 4 nM | 3 nM | 20 µg/mL (≈ 28.8 µM) | 4 µg/mL (≈ 5.77 µM) | C[C@H](Oc1cc(-n2ccc(-c3cn([C@@H]4CCOC4)nn3)n2)nc(-c2noc3c2CCC[C@@]32CCCc3sc(N)c(C#N)c32)n1)[C@@H]1CCCN1C [II-211] |
| 11 nM | 7 nM | 6 nM | 23 µg/mL (≈ 32.5 µM) | 2 µg/mL (≈ 2.83 µM) | C[C@H](Oc1cc(-n2ccc(-c3cn(CC4(C)COC4)nn3)n2)nc(-c2noc3c2CCC[C@@]32CCCc3sc(N)c(C#N)c32)n1)[C@@H]1CCCN1C [II-213] |
| 1900 nM | 5350 nM | 1360 nM | > 121 µg/mL | > 151 µg/mL | CNC1CCN(c2cc(O[C@@H](C)[C@@H]3CCCN3C)nc(-c3noc4c3CCC[C@@]43CCCc4sc(N)c(C#N)c43)n2)CC1 [II-214] |
